The numbers were not newly measured in patent EP4364951A1, “OVERCOAT INK AND INK SET CONTAINING SAME” (DNP Fine Chemicals Co., Ltd., priority 2021, dated 2023), which cites them from elsewhere.

The conditions of the data set: water-octanol, common logarithm.

With `CCCC(O)CO` (stereo not shown) [1.2-Pentanediol], the Partition coefficient was 1.2-Pentanediol (0.011). As to `CC(O)CO` (stereo not shown) [1,2-Propanediol], the Partition coefficient was 1,2-Propanediol (-1.008). With `CC(C)(O)CCO` [3-M ethyl-1,3-butanediol], the Partition coefficient was 3- M ethyl- 1,3- butanediol (-0.329). `CCOCCOCCO` [Diethylene glycol monoethyl ether]: the Partition coefficient result is “Diethylene glycol monoethyl ether (-0.421)”. Regarding `CCC(O)CO` (stereo not shown) [1,2-Butanediol], the Partition coefficient is reported as 1,2-Butanediol (-0.499).

In the case of `COC(C)CCO` (stereo not shown) [3-Methoxy-1-butanol], the Partition coefficient is 3-Methoxy -1-butanol (0.070).

With `OCCCO` [1,3-Propanediol], the Partition coefficient is recorded as 1,3-Propanediol (-1.093).
